Data from patent US6479435B1, “Diaryl ethers and processes for their preparation and herbicidal and desiccant compositions containing them” (ISK Americas Incorporated, priority 1997, dated 2002).

How the values were obtained:
Format in all cases: in vivo
[1] = system: green foxtail (Setaria viridis, SETVI); experiment: Pre-emerge greenhouse herbicide test, phytotoxicity rating; conditions: Setaria viridis, pre-emergence, 336 h, 14 days after application, rating scale 0-100; for pest or weed control at 125 g/ha: Rate 125 g al/ha; for pest or weed control at 500 g/ha: Rate 500 g al/ha
In short: (§1)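 Seeds sown in sandy loam mix one day before track-sprayer application of compounds in acetone at 125–1000 g ai/ha (187 l/ha), then surface-watered to incorporate and bottom-watered. Visual rating 14 days after application on a 0–100 scale (0 = no damage, 100 = all plants dead).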

[2] = system: lambsquarters (Chenopodium album, CHEAL); experiment: as above; conditions: Chenopodium album, pre-emergence, 336 h, 14 days after application, rating scale 0-100; for pest or weed control at 125 g/ha: Rate 125 g al/ha; for pest or weed control at 500 g/ha: Rate 500 g al/ha
In short: as §1

[3] = system: redroot pigweed (Amaranthus retroflexus, AMARE); experiment: as above; conditions: Amaranthus retroflexus, pre-emergence, 336 h, 14 days after application, rating scale 0-100; for pest or weed control at 125 g/ha: Rate 125 g al/ha; for pest or weed control at 500 g/ha: Rate 500 g al/ha
In short: as §1

[4] = system: ivyleaf morningglory (Ipomoea hederacea, IPOHE); experiment: as above; conditions: Ipomoea, pre-emergence, 336 h, 14 days after application, rating scale 0-100; for pest or weed control at 125 g/ha: Rate 125 g al/ha; for pest or weed control at 500 g/ha: Rate 500 g al/ha
In short: as §1

[5] = system: velvetleaf (Abutilon theophrasti, ABUTH); experiment: as above; conditions: Abutilon theophrasti, pre-emergence, 336 h, 14 days after application, rating scale 0-100; for pest or weed control at 125 g/ha: Rate 125 g al/ha; for pest or weed control at 500 g/ha: Rate 500 g al/ha
In short: as §1

[6] = system: Johnsongrass (Sorghum halepense, SORHA); experiment: as above; conditions: Sorghum halepense, pre-emergence, 336 h, 14 days after application, rating scale 0-100; for pest or weed control at 125 g/ha: Rate 125 g al/ha; for pest or weed control at 500 g/ha: Rate 500 g al/ha
In short: as §1

[7] = system: green foxtail (Setaria viridis, SETVI); experiment: Post-emerge greenhouse herbicide test, phytotoxicity rating; conditions: Setaria viridis, post-emergence, 336 h, 14 days after application, scale 0-100; for pest or weed control at 63 g/ha: rate 63 g ai/ha; for pest or weed control at 500 g/ha: rate 500 g ai/ha
In short: (§2)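 Compounds in acetone with 0.25% v/v non-ionic surfactant were track-sprayed at 187 l/ha over plants at the 2-3 leaf stage, at 63 to 1000 g ai/ha. Pots were bottom-watered. Injury was scored visually 14 days later on a 0-100 scale, where 0 is no damage and 100 is complete plant death.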

[8] = system: lambsquarters (Chenopodium album, CHEAL); experiment: as above; conditions: Chenopodium album, post-emergence, 336 h, 14 days after application, scale 0-100; for pest or weed control at 63 g/ha: rate 63 g ai/ha; for pest or weed control at 500 g/ha: rate 500 g ai/ha
In short: as §2

[9] = system: redroot pigweed (Amaranthus retroflexus, AMARE); experiment: as above; conditions: Amaranthus retroflexus, post-emergence, 336 h, 14 days after application, scale 0-100; for pest or weed control at 63 g/ha: rate 63 g ai/ha; for pest or weed control at 500 g/ha: rate 500 g ai/ha
In short: as §2

[10] = system: ivyleaf morningglory (Ipomoea hederacea, IPOHE); experiment: as above; conditions: Ipomoea, post-emergence, 336 h, 14 days after application, scale 0-100; for pest or weed control at 63 g/ha: rate 63 g ai/ha; for pest or weed control at 500 g/ha: rate 500 g ai/ha
In short: as §2

[11] = system: velvetleaf (Abutilon theophrasti, ABUTH); experiment: as above; conditions: Abutilon theophrasti, post-emergence, 336 h, 14 days after application, scale 0-100; for pest or weed control at 63 g/ha: rate 63 g ai/ha; for pest or weed control at 500 g/ha: rate 500 g ai/ha
In short: as §2

[12] = system: large crabgrass (Digitaria sanguinalis, DIGSA); experiment: as above; conditions: Digitaria sanguinalis, post-emergence, 336 h, 14 days after application, scale 0-100; for pest or weed control at 63 g/ha: rate 63 g ai/ha; for pest or weed control at 500 g/ha: rate 500 g ai/ha
In short: as §2

[13] = system: Johnsongrass (Sorghum halepense, SORHA); experiment: as above; conditions: Sorghum halepense, post-emergence, 336 h, 14 days after application, scale 0-100; for pest or weed control at 63 g/ha: rate 63 g ai/ha; for pest or weed control at 500 g/ha: rate 500 g ai/ha
In short: as §2

[14] = system: barnyardgrass (Echinochloa crusgalli, ECHCG); experiment: as above; conditions: Echinochloa crus-galli, post-emergence, 336 h, 14 days after application, scale 0-100; for pest or weed control at 63 g/ha: rate 63 g ai/ha; for pest or weed control at 500 g/ha: rate 500 g ai/ha
In short: as §2

[15] = system: sicklepod (Cassia obtusifolia, CASOB); experiment: as above; conditions: Senna obtusifolia, post-emergence, 336 h, 14 days after application, scale 0-100; for pest or weed control at 63 g/ha: rate 63 g ai/ha; for pest or weed control at 500 g/ha: rate 500 g ai/ha
In short: as §2

| SMILES | pest or weed control at 125 g/ha [1] | pest or weed control at 500 g/ha [1] | pest or weed control at 125 g/ha [2] | pest or weed control at 500 g/ha [2] | pest or weed control at 125 g/ha [3] | pest or weed control at 500 g/ha [3] | pest or weed control at 125 g/ha [4] | pest or weed control at 500 g/ha [4] | pest or weed control at 125 g/ha [5] | pest or weed control at 500 g/ha [5] | pest or weed control at 125 g/ha [6] | pest or weed control at 500 g/ha [6] | pest or weed control at 63 g/ha [7] | pest or weed control at 500 g/ha [7] | pest or weed control at 63 g/ha [8] | pest or weed control at 500 g/ha [8] | pest or weed control at 63 g/ha [9] | pest or weed control at 500 g/ha [9] | pest or weed control at 63 g/ha [10] | pest or weed control at 500 g/ha [10] | also measured |
| --- | --- | --- | --- | --- | --- | --- | --- | --- | --- | --- | --- | --- | --- | --- | --- | --- | --- | --- | --- | --- | --- |
| O=c1n(-c2cc(Oc3ncccc3C(F)(F)F)c(Cl)cc2F)c(=S)n2n1CCCC2 [Compound 8-18, 2-[4-chloro-2-fluoro-5-(3-trifluoromethyl-2pyridyloxy)phenyl]hexahydro-3-thioxo-1H-[1,2,4]triazolo[1,2-a]pyridazin-1-one] | 95% | 100% | 100% | 100% | 100% | 100% | 20% | 45% | 100% | 100% | 40% | 100% | 40% | 70% | 100% | 100% | 100% | 100% | 100% | 100% | pest or weed control at 63 g/ha [11]: 100%; pest or weed control at 500 g/ha [11]: 100%; pest or weed control at 63 g/ha [12]: 0%; pest or weed control at 500 g/ha [12]: 10%; pest or weed control at 63 g/ha [13]: 50%; pest or weed control at 500 g/ha [13]: 90%; pest or weed control at 63 g/ha [14]: 70%; pest or weed control at 500 g/ha [14]: 70%; pest or weed control at 63 g/ha [15]: 70%; pest or weed control at 500 g/ha [15]: 100% |
| O=c1n(-c2cc(Oc3ncccn3)c(Cl)cc2F)c(=S)n2n1CCCC2 [Compound 8-29, 2-[4-chloro-2-fluoro-5-(2-pyrimidyloxy)phenyl]hexahydro-3-thioxo-1H-[1,2,4]triazolo[1,2-a]pyridazin-1-one] | 100% | 100% | 100% | 100% | 100% | 100% | 100% | 100% | 100% | 100% | 100% | 100% | 90% | 100% | 100% | 100% | 100% | 100% | 100% | 100% | pest or weed control at 63 g/ha [11]: 100%; pest or weed control at 500 g/ha [11]: 100%; pest or weed control at 63 g/ha [12]: 50%; pest or weed control at 500 g/ha [12]: 100%; pest or weed control at 63 g/ha [13]: 90%; pest or weed control at 500 g/ha [13]: 100%; pest or weed control at 63 g/ha [14]: 80%; pest or weed control at 500 g/ha [14]: 100%; pest or weed control at 63 g/ha [15]: 100%; pest or weed control at 500 g/ha [15]: 100% |
